Measurements reported in patent US9340768B2, “Transformation of glycerol and cellulosic materials into high energy fuels” (THE TEXAS A&M UNIVERSITY SYSTEM, priority 2008, dated 2016).
“Also recorded” adds a separate entry of the source.

Columns and labels:
Type in all cases: cell-based, Debaryomyces hansenii
[1] = tested on: D. hansenii; assay: Growth and oleagenicity of D. hansenii on pure carbon sources (Nile red plate staining); conditions: for Growth: carbon source at 30 g/L in minimal media; for Oleagenicity: carbon source at 30 g/L, Nile Red fluorescence
Experimental: D. hansenii (Dh) and S. cerevisiae (Sc) grown on minimal media containing no carbon source, 30 g/L of glucose, arabinose, xylose, carboxymethylcellulose or cellobiose. D. hansenii grew well on media containing glucose, arabinose and cellobiose. Lipid accumulation was indicated by Nile Red fluorescence in D. hansenii grown on glucose but not on cellobiose.
Culture media and cultivation conditions. For liquid culture, single colony of D. hansenii or S. cerevisiae were pre-cultured in 2 mL YPD or other desired media (see below) and incubated at 30° C. for 24 hr. Cells were counted using a hemacytometer and spun down at 3000 rpm for 15 minutes. Cells at a concentration of 1×10^6/mL were used to inoculate the desired media with 1% of the total volume. Medium A with limited nitrogen source (glucose 30 g/L, yeast extract 1.5 g/L, NH4Cl 0.1 g/L, KH2PO4 7.0 g/L, Na2HPO4 1.983 g/L, MgSO4.7H2O 1.5 g/L, FeCl3.6H2O 0.08 g/L, ZnSO4.7H2O 0.01 g/L, CaCl2.2H2O 0.1 g/L, MnSO4.H2O 0.07 mg/L, CuSO4.5H2O 0.1 mg/L, Co(NO3)2.6H2O 0.1 mg/L, pH 5.5; see Kimura et al., 2004) was used to support the growth of D. hansenii and induce cellular lipid accumulation. Medium A with sufficient nitrogen supply (NH4Cl 5 g/L) was used to support growth without the induction of lipid accumulation. To test the growth of D. hansenii on carbon sources other than glucose, glucose was dropped out from medium A and replaced with desired carbon sources at the same concentration except for glycerol, which was at 10% or 20% (v/v). […] For making media containing sorghum juice, raw juice was filter sterilized and added in the media at various concentrations of 5%, 10%, 25%, and 50% (v/v). Crude glycerol (Future Fuel Chemical Company, Arkansas, USA) contained 6% water, 88% glycerol, 2.564% ash by weight.
Nile red plate staining assay. Nile red (9-diethylamino-5H-benzo[α]phenoxazine-5-one) obtained from Sigma-Aldrich (Missouri, USA) was dissolved in Dimethyl sulfoxide (DMSO) at a concentration of 0.5 mg/mL and supplemented in medium A at a final concentration of 0.5 μg/mL. For direct observation of cellular lipid accumulation, D. hansenii grown on solid medium A with Nile red were observed using a UV light source (312 nm) as described (Spiekemann et al., 1999).

[2] = tested on: D. hansenii; assay: OmniLog Phenotype Microarray, osmolytes (PM9); conditions: 30° C., OMNILOG PM
Experimental: PM assays. Inoculums for PM panels were prepared according to the manufacturer's protocols with modifications; Procedures for S. cerevisiae and other Fungi version 8 Feb. 2006 (Biolog) was used to prepare inoculums for PM01, PM02, and PM09, while version 29 Apr. 2008 (Biolog) was used for PM10. In brief, D. hansenii were streaked onto defined Medium A (Table 6) and cultivated at 30° C. for 48 hours. Cells were redistributed onto fresh agar using a sterile swab and incubated for an additional 4 hours at 30° C. to ensure active growth and avoid late-growth clumping (Oliver R Homann, Houjian Cai, 2005). (Kimura et al., 2004)
Cells were then transferred into the appropriate PM inoculation fluid (Table 7) and re-suspended to 62% transmittance (approximately 200 cells per 100 μL assay). PM1 and PM2 measure carbon source utilization and/or sensitivity; as such, the inoculation fluid lacks a defined carbon source (e.g., glycerol or glucose). In contrast, the inoculating fluids for PM9 (osmolytes) and PM10 (pH) required the inclusion of a carbon source (Table 7); in this case glucose was supplemented to 100 mM.
D. hansenii-containing inoculation fluid was inoculated into PM panels and incubated at 30° C. for 6.5 days. Color intensity for each well was measured every 15 minutes. Exemplary time course (kinetic) results (means) from representative PM assays are plotted.
In order to simplify the comparison of individual assay conditions, the full time-course kinetic plots were converted into a single unitless numerical value, which is weighted to more greatly value latter time points (e.g., endpoints), as described by Homann et al. (2005). Signal value=[(average signal+maximum signal)/2−average signal over first 2 h]; Represent the full time course by a single number; Weight the value towards latter time points; Subtract the “baseline” signal level for each well (Oliver R Homann, 2005) and Replicate PM assay runs were conducted, and the average of the signal values was used.

[3] = tested on: D. hansenii; assay: Cell viability by FUN1 stain and microscopic quantification; conditions: 100 nM wortmannin, FUN1 stain
Experimental: (§1) Fluorescent microscopy. For Nile red stained cells or cultures, microscopic photographs were taken with an Olympus BX51 microscope (Olympus America, New York, USA) equipped with an Olympus DP70 camera using a 530-550 nm excitation filter, a 570 nm diachronic mirror and a 590 nm emission filter with a 60× objective lens. For microscopic quantification of secreted lipid bodies, 50 μL of the cell suspension in media A containing 0.2% agarose and Nile red, with or without the addition of 100 nM wortmannin, were inoculated in triplicate in microscopic frames that allow the agarose-based matrix to be sealed between two pieces of cover glasses. Slides were incubated in 90% moisture at 30° C. At 0, 48, 72, 96, 120, 144 hr post inoculation, the number of the cells and extracellular lipid bodies (stained with Nile red) were quantified. In parallel, the cells were stained with FUN1 (Invitrogen) for viability determination.

[4] = tested on: D. hansenii; assay: Microscopic quantification of secreted (extracellular) lipid bodies, Nile red; conditions: 100 nM wortmannin, 144 hr post inoculation; untreated control more than 80 per 100 cells
Experimental: as §1

Compound | Oleagenicity [1] | level of salt solution tolerated without severe compromise in growth [2] | also measured
O=C[C@@H](O)[C@H](O)[C@H](O)CO [Arabinose] | No | – | Growth [1]: grew well
O=C[C@H](O)[C@@H](O)[C@H](O[C@@H]1O[C@H](CO)[C@@H](O)[C@H](O)[C@H]1O)[C@H](O)CO [Cellobiose] | No | – | Growth [1]: grew well
[Cl-].[K+] [KCl] | – | ≤ 6% | –
O=S(=O)([O-])[O-].[Na+].[Na+] [Na2SO4] | – | ≤ 5% | –
[Cl-].[Na+] [NaCl] | – | up to 6.5% | –
O=C[C@H](O)[C@@H](O)[C@H](O)CO [Xylose] | No | – | –
COC[C@H]1OC(=O)c2coc3c2[C@@]1(C)C1=C(C3=O)[C@@H]2CCC(=O)[C@@]2(C)C[C@H]1OC(C)=O [wortmannin] | – | – | cell viability [3]: remained unaffected; also recorded: not affected; lipid bodies released from D. hansenii cells [4]: lower than 10 per 100 cells
